We go through twelve compounds from ChEMBL document CHEMBL1201862, “PubChem BioAssay data set” (2004).

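Where inhibition never reached the appropriate level, the endpoint shown equals the highest concentration tested. Otherwise, values were interpolated linearly from a five-concentration, 48-hour dose response in 96-well plates. Abbreviation: GI50, concentration required for 50% inhibition of growth.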 Calls of active or inactive are those of the source. Cut-off read from the data, not from the text of the source: active = GI50 up to about 1.1 µM and inactive = higher.

Test systems include T47D; OVCAR-4; SK-MEL-28; SK-OV-3; HCT-15; K562; OVCAR-5; HT-29; MDA-MB-231; HL-60; TK-10; Hs-578T; OVCAR-3; UACC-257; OVCAR-8; HCT-116; Malme-3M; A498; RXF 393; SR.
Common to all, as to assay: growth of human tumour cells (NCI), 48 h

Regarding `Fc1ccc(C(OCCN2CCC3CCC(C2)N3CCCc2ccccc2)c2ccc(F)cc2)cc1` (stereo not drawn), the GI50 is 2.16 µM (inactive) in the assay with T47D; 5.28 µM (inactive) in the assay with OVCAR-4; 2.52 µM (inactive) in the assay on SK-MEL-28; 10.4 µM (inactive) with SK-OV-3; 3.76 µM in the assay on HCT-15; 2.05 µM (inactive) with K562. For the same compound, the GI50 with OVCAR-5 was 6.71 µM (inactive); with HT-29 it was 3.3 µM (inactive); in the assay with MDA-MB-231 it was 3.87 µM (inactive); in the assay on HL-60, 2.12 µM (inactive); with TK-10, 4.43 µM (inactive); in the assay with Hs-578T it was 4.58 µM (inactive). Besides, the GI50 with OVCAR-3 was 3.55 µM (inactive); in the assay on UACC-257, 2.92 µM (inactive); in the assay with OVCAR-8, 2.24 µM (inactive); with HCT-116, 2.65 µM (inactive); in the assay with Malme-3M, 2.29 µM (inactive); in the assay on A498, 3.02 µM (inactive).
Take `COP(=O)(CP(=O)(OC)OCCC(C)CCC=C(C)C)OC` (stereo not drawn): the GI50 with T47D is > 100 µM (inactive); in the assay on RXF 393, > 100 µM (inactive); in the assay on OVCAR-4 it was > 100 µM (inactive); in the assay with SK-MEL-28, > 100 µM (inactive); in the assay on SK-OV-3, > 100 µM (inactive); with HCT-15, > 100 µM. Further, the GI50 with K562 is > 100 µM (inactive); in the assay with OVCAR-5, > 100 µM (inactive); with MDA-MB-231 it was 19.1 µM (inactive); in the assay with TK-10, > 100 µM (inactive); with OVCAR-3 it was > 100 µM (inactive); in the assay with UACC-257, > 100 µM (inactive). In addition, the GI50 in the assay with OVCAR-8, with HCT-116, with Malme-3M and with A498 was > 100 µM (inactive) in each case.
On to `Cc1[nH]c(=O)nc(NCCNCCO)c1C(=O)Nc1c2ccccc2nc2ccccc12`, for which the GI50 in the assay with T47D was > 100 µM (inactive); in the assay with RXF 393, > 100 µM (inactive); in the assay on OVCAR-4, > 100 µM (inactive); with SK-MEL-28, > 100 µM (inactive); with SK-OV-3, > 100 µM (inactive); in the assay on HCT-15, > 100 µM. Besides, the GI50 with K562, in the assay with OVCAR-5, with HT-29, with MDA-MB-231, with HL-60 and in the assay with TK-10 was > 100 µM (inactive) each time. Further, the GI50 with OVCAR-3, in the assay with UACC-257, in the assay with OVCAR-8, in the assay with HCT-116, with Malme-3M and in the assay with A498 was > 100 µM (inactive) throughout.
Take `C(=N\c1ccc(-c2nc3ccccc3o2)cc1)/c1ccco1`: the GI50 in the assay with T47D is 38.6 µM (inactive); with RXF 393, 39.7 µM (inactive); in the assay on OVCAR-4, 57.4 µM (inactive); in the assay with SK-MEL-28, > 100 µM (inactive); with HCT-15, 49.3 µM; with OVCAR-5, > 100 µM (inactive). In addition, the GI50 in the assay on HT-29 was 63.5 µM (inactive); in the assay on SR, 65.9 µM (inactive); with UACC-257, 48.3 µM (inactive); in the assay on OVCAR-8 it was > 100 µM (inactive); in the assay with HCT-116, 59.6 µM (inactive); with Malme-3M it was 82.2 µM (inactive). In addition, the GI50 in the assay with A498 was 37.7 µM (inactive).
Take `CC1=C(C)C(=O)C(C2=CC(=O)c3ccccc3C2=O)=C(C2=CC(=O)c3ccccc3C2=O)C1=O`: the GI50 is 6.95 µM (inactive) in the assay with T47D; 2.52 µM (inactive) with RXF 393; 5.04 µM (inactive) in the assay on OVCAR-4; 7.62 µM (inactive) in the assay on SK-MEL-28; 20.2 µM (inactive) in the assay with SK-OV-3; 0.646 µM in the assay with HCT-15. Moreover, the GI50 in the assay on OVCAR-5 was 24.3 µM (inactive); in the assay on HT-29 it was 0.684 µM (active); in the assay with MDA-MB-231 it was 4.52 µM (inactive); in the assay on HL-60, 0.234 µM (active); in the assay with TK-10 it was 3.38 µM (inactive); in the assay on Hs-578T, 3.62 µM (inactive). The GI50 in the assay with UACC-257 is 8.2 µM (inactive); in the assay on OVCAR-8, 3.64 µM (inactive); in the assay on HCT-116, 3.6 µM (inactive); with Malme-3M, 0.514 µM (active); in the assay with A498, 23.4 µM (inactive).
For the compound `COc1cc(OC)nc(Nc2c(C#N)c3nc4ccccc4n3c3ccccc23)n1`, the GI50 was > 100 µM (inactive) with T47D; 39.8 µM (inactive) with RXF 393; 22.3 µM (inactive) in the assay with OVCAR-4; > 100 µM (inactive) with SK-MEL-28; 51.6 µM (inactive) in the assay on SK-OV-3; > 100 µM in the assay with HCT-15. Besides, the GI50 is > 100 µM (inactive) in the assay with K562; > 100 µM (inactive) with OVCAR-5; > 100 µM (inactive) in the assay with HT-29; > 100 µM (inactive) with HL-60; 26.5 µM (inactive) in the assay with TK-10; 47.6 µM (inactive) in the assay on Hs-578T. Further, the GI50 in the assay on OVCAR-3 was 31.3 µM (inactive); in the assay on UACC-257, 52.7 µM (inactive); with OVCAR-8, 34.9 µM (inactive); with HCT-116 it was 29.6 µM (inactive).
Take `S=C(NN=C1NCCCCN1)Nc1ccccc1`: the GI50 in the assay on T47D is > 100 µM (inactive); with SK-MEL-28, 35.5 µM (inactive); in the assay on SK-OV-3, 79.8 µM (inactive); in the assay with HCT-15, 37.4 µM; in the assay on K562, 31.6 µM (inactive); with OVCAR-5 it was > 100 µM (inactive). Besides, the GI50 with HT-29 is 23 µM (inactive); with MDA-MB-231, > 100 µM (inactive); in the assay on HL-60, 14.6 µM (inactive); in the assay with SR, 13.1 µM (inactive); in the assay with OVCAR-3, 40.4 µM (inactive); in the assay with UACC-257, 36 µM (inactive). Moreover, the GI50 in the assay on OVCAR-8 is 36 µM (inactive); in the assay with HCT-116, 24.5 µM (inactive); in the assay with Malme-3M, > 100 µM (inactive); with A498, > 100 µM (inactive).
As to `CC[n+]1cnc(N)c2c(-c3ccc(Cl)cc3)cn(-c3ccc(C)cc3)c21`, the GI50 is 12 µM (inactive) in the assay with T47D; 3.05 µM (inactive) with RXF 393; 2.77 µM (inactive) in the assay on OVCAR-4; 9.33 µM (inactive) in the assay with SK-MEL-28; 15.4 µM (inactive) in the assay on SK-OV-3; 14.9 µM with HCT-15. The GI50 in the assay with K562 was 5.33 µM (inactive); in the assay on OVCAR-5, 15.8 µM (inactive); with HT-29, 4.36 µM (inactive); in the assay with MDA-MB-231 it was 17 µM (inactive); in the assay with HL-60, 24.8 µM (inactive); with TK-10 it was 17.6 µM (inactive). Moreover, the GI50 with SR was 4.6 µM (inactive); in the assay on OVCAR-3, 9.38 µM (inactive); in the assay with UACC-257 it was 2.82 µM (inactive); in the assay with OVCAR-8, 18.5 µM (inactive); in the assay on HCT-116, 9.4 µM (inactive); with Malme-3M, 12.3 µM (inactive). Further, the GI50 in the assay on A498 is 11.4 µM (inactive).
On to `Nc1cccc(S(=O)(=O)Nc2nnc(S(N)(=O)=O)s2)c1`, for which the GI50 was > 100 µM (inactive) in the assay on T47D; > 100 µM (inactive) with RXF 393; > 100 µM (inactive) in the assay with OVCAR-4; > 100 µM (inactive) with SK-MEL-28; > 100 µM (inactive) in the assay with SK-OV-3; > 100 µM in the assay with HCT-15. In addition, the GI50 in the assay with K562, with OVCAR-5, in the assay on HT-29, in the assay on MDA-MB-231, in the assay on HL-60 and with TK-10 was > 100 µM (inactive) in each case. Further, the GI50 with SR, in the assay on OVCAR-3, with OVCAR-8, with HCT-116, with Malme-3M and in the assay with A498 was > 100 µM (inactive) each time.
For the compound `C[C@@H](C1CC[C@H]2[C@@H]3[C@@H]4O[C@@H]4[C@@]4(O)CC=CC(=O)[C@]4(C)[C@H]3C[C@H](O)[C@]12C)[C@H]1C[C@]2(C)O[C@]2(C)C(=O)O1` (stereo partly drawn), the GI50 in the assay with T47D is > 100 µM (inactive); with OVCAR-4, > 100 µM (inactive); with SK-MEL-28, > 100 µM (inactive); in the assay with SK-OV-3, > 100 µM (inactive); in the assay with HCT-15 it was > 100 µM; in the assay on K562 it was > 100 µM (inactive). Moreover, the GI50 with OVCAR-5, in the assay with HT-29, in the assay with MDA-MB-231, with HL-60, in the assay on TK-10 and in the assay with Hs-578T was > 100 µM (inactive) in each case. The GI50 with OVCAR-3, with UACC-257, in the assay with OVCAR-8, in the assay with HCT-116, with Malme-3M and in the assay with A498 was > 100 µM (inactive) each time.
For the compound `C[n+]1ccccc1/C1=c2\cc/c([nH]2)=C(\c2cccc[n+]2C)C2=N/C(=C(/c3cccc[n+]3C)C3C=CC(N3)/C(c3cccc[n+]3C)=C3/C=CC1=N3)C=C2`, the GI50 in the assay on T47D is > 100 µM (inactive); in the assay on RXF 393, > 100 µM (inactive); with OVCAR-4 it was > 100 µM (inactive); in the assay on SK-MEL-28, > 100 µM (inactive); in the assay on SK-OV-3, > 100 µM (inactive); with HCT-15, > 100 µM. The GI50 in the assay with K562 is 26.7 µM (inactive); in the assay on OVCAR-5, > 100 µM (inactive); with HT-29, 39.3 µM (inactive); in the assay on HL-60 it was > 100 µM (inactive); in the assay on TK-10, > 100 µM (inactive); in the assay with SR it was 15.6 µM (inactive). In addition, the GI50 was > 100 µM (inactive) with Hs-578T; 58.7 µM (inactive) in the assay with OVCAR-3; > 100 µM (inactive) in the assay on UACC-257; > 100 µM (inactive) in the assay on OVCAR-8; 46.3 µM (inactive) in the assay on HCT-116; > 100 µM (inactive) with Malme-3M. Moreover, the GI50 in the assay with A498 is > 100 µM (inactive).
With `O=C1CC(c2cccc(Cl)c2)Oc2ccccc21` (stereo not drawn), the GI50 with T47D is 12.7 µM (inactive); with OVCAR-4, 22.4 µM (inactive); in the assay with SK-MEL-28, 18.6 µM (inactive); in the assay on SK-OV-3, 20.9 µM (inactive); with HCT-15, 15.9 µM; with K562, 2.9 µM (inactive). The GI50 in the assay with HT-29 is 17.5 µM (inactive); in the assay with MDA-MB-231 it was 34.5 µM (inactive); in the assay on HL-60, 11.1 µM (inactive); in the assay with TK-10, > 10 µM (inactive); in the assay with Hs-578T it was 23.6 µM (inactive); in the assay with UACC-257, 16.9 µM (inactive). For the same compound, the results for the GI50 with OVCAR-8, in the assay with HCT-116 and in the assay on A498 were 29.2 µM (inactive), 15.9 µM (inactive) and 24.7 µM (inactive), respectively.
